Key:
CCRF-CEM = assay: NCI60 one-dose screen (10 μM), Leukemia; format: cell-based; details: Homo sapiens, read-out: Growth percent rate
HL-60(TB) = assay: NCI60 one-dose screen (10 μM), Leukemia; format: cell-based; details: Homo sapiens, HL-60, read-out: Growth percent rate
K-562 = assay: NCI60 one-dose screen (10 μM), Leukemia; format: cell-based; details: Homo sapiens, K562, read-out: Growth percent rate
MOLT-4 = assay: NCI60 one-dose screen (10 μM), Leukemia; format: cell-based, human; details: Homo sapiens, MOLT-4, read-out: Growth percent rate
RPMI-8226 = assay: NCI60 one-dose screen (10 μM), Leukemia; format: cell-based; details: Homo sapiens, RPMI-8226, read-out: Growth percent rate
A549/ATCC = assay: NCI60 one-dose screen (10 μM), Non-small Cell Lung Cancer; format: cell-based; details: Homo sapiens, A549, read-out: Growth percent rate
HOP-62 = assay: as above; format: cell-based; details: Homo sapiens, HOP-62, read-out: Growth percent rate
NCI-H322M = assay: as above; format: cell-based; details: Homo sapiens, read-out: Growth percent rate
NCI-H460 = assay: as above; format: cell-based; details: Homo sapiens, NCI-H460, read-out: Growth percent rate
NCI-H522 = assay: as above; format: cell-based; details: Homo sapiens, NCI-H522, read-out: Growth percent rate
COLO 205 = assay: NCI60 one-dose screen (10 μM), Colon Cancer; format: cell-based, human; details: Homo sapiens, COLO 205, read-out: Growth percent rate
HCT-116 = assay: NCI60 one-dose screen (10 μM), Colon Cancer; format: cell-based; details: Homo sapiens, HCT-116, read-out: Growth percent rate
HCT-15 = assay: NCI60 one-dose screen (10 μM), Colon Cancer; format: cell-based; details: Homo sapiens, HCT-15, read-out: Growth percent rate
HT29 = assay: NCI60 one-dose screen (10 μM), Colon Cancer; format: cell-based; details: Homo sapiens, HT-29, read-out: Growth percent rate
KM12 = assay: NCI60 one-dose screen (10 μM), Colon Cancer; format: cell-based, human; details: Homo sapiens, KM12, read-out: Growth percent rate
SW-620 = assay: NCI60 one-dose screen (10 μM), Colon Cancer; format: cell-based; details: Homo sapiens, SW-620, read-out: Growth percent rate
SF-268 = assay: NCI60 one-dose screen (10 μM), CNS Cancer; format: cell-based; details: Homo sapiens, SF-268, read-out: Growth percent rate
SF-295 = assay: NCI60 one-dose screen (10 μM), CNS Cancer; format: cell-based; details: Homo sapiens, SF-295, read-out: Growth percent rate
SF-539 = assay: NCI60 one-dose screen (10 μM), CNS Cancer; format: cell-based, human; details: Homo sapiens, SF-539, read-out: Growth percent rate
SNB-19 = assay: NCI60 one-dose screen (10 μM), CNS Cancer; format: cell-based; details: Homo sapiens, SNB-19, read-out: Growth percent rate
SNB-75 = assay: NCI60 one-dose screen (10 μM), CNS Cancer; format: cell-based, human; details: Homo sapiens, SNB-75, read-out: Growth percent rate
U251 = assay: NCI60 one-dose screen (10 μM), CNS Cancer; format: cell-based; details: Homo sapiens, U-251, read-out: Growth percent rate
LOX IMVI = assay: NCI60 one-dose screen (10 μM), Melanoma; format: cell-based, human; details: Homo sapiens, LOX IMVI, read-out: Growth percent rate
MALME-3M = assay: NCI60 one-dose screen (10 μM), Melanoma; format: cell-based; details: Homo sapiens, Malme-3M, read-out: Growth percent rate
M14 = assay: NCI60 one-dose screen (10 μM), Melanoma; format: cell-based; details: Homo sapiens, M14, read-out: Growth percent rate
SK-MEL-2 = assay: NCI60 one-dose screen (10 μM), Melanoma; format: cell-based; details: Homo sapiens, SK-MEL-2, read-out: Growth percent rate
SK-MEL-28 = assay: NCI60 one-dose screen (10 μM), Melanoma; format: cell-based; details: Homo sapiens, SK-MEL-28, read-out: Growth percent rate
SK-MEL-5 = assay: NCI60 one-dose screen (10 μM), Melanoma; format: cell-based, human; details: Homo sapiens, SK-MEL-5, read-out: Growth percent rate
UACC-257 = assay: NCI60 one-dose screen (10 μM), Melanoma; format: cell-based; details: Homo sapiens, UACC-257, read-out: Growth percent rate
IGROV1 = assay: NCI60 one-dose screen (10 μM), Ovarian Cancer; format: cell-based; details: Homo sapiens, IGROV-1, read-out: Growth percent rate
OVCAR-3 = assay: NCI60 one-dose screen (10 μM), Ovarian Cancer; format: cell-based; details: Homo sapiens, OVCAR-3, read-out: Growth percent rate
OVCAR-8 = assay: NCI60 one-dose screen (10 μM), Ovarian Cancer; format: cell-based; details: Homo sapiens, OVCAR-8, read-out: Growth percent rate
786–0 = assay: NCI60 one-dose screen (10 μM), Renal Cancer; format: cell-based; details: Homo sapiens, 786-0, read-out: Growth percent rate
A498 = assay: NCI60 one-dose screen (10 μM), Renal Cancer; format: cell-based; details: Homo sapiens, A498, read-out: Growth percent rate
ACHN = assay: NCI60 one-dose screen (10 μM), Renal Cancer; format: cell-based; details: Homo sapiens, read-out: Growth percent rate
RXF 393 = assay: NCI60 one-dose screen (10 μM), Renal Cancer; format: cell-based, human; details: Homo sapiens, RXF 393, read-out: Growth percent rate
SN12C = assay: NCI60 one-dose screen (10 μM), Renal Cancer; format: cell-based; details: Homo sapiens, read-out: Growth percent rate
TK-10 = assay: NCI60 one-dose screen (10 μM), Renal Cancer; format: cell-based; details: Homo sapiens, TK-10, read-out: Growth percent rate
DU-145 = assay: NCI60 one-dose screen (10 μM), Prostate Cancer; format: cell-based; details: Homo sapiens, DU-145, read-out: Growth percent rate
MCF7 = assay: NCI60 one-dose screen (10 μM), Breast Cancer; format: cell-based; details: Homo sapiens, MCF7, read-out: Growth percent rate
HS 578T = assay: NCI60 one-dose screen (10 μM), Breast Cancer; format: cell-based; details: Homo sapiens, Hs-578T, read-out: Growth percent rate
[1] = test system: 60 human tumor cell lines (NCI60); assay: NCI60 one-dose screen (10 μM), whole panel; format: cell-based; details: for antiproliferative effect (in words): 10 μM one-dose, NCI60

CCC12C=CCN3CC[C@@]4(c5ccc(OC)cc5N(C)[C@H]4[C@@](O)(C(=O)OC)[C@@H]1OC(C)=O)[C@@H]32 (some centres unmarked) [Compound 1, vindoline]
activity at 10 µM (CCRF-CEM): 102% | activity at 10 µM (HL-60(TB)): 96.7% | activity at 10 µM (K-562): 89.3% | activity at 10 µM (MOLT-4): 92.7% | activity at 10 µM (RPMI-8226): 105% | activity at 10 µM (A549/ATCC): 101% | activity at 10 µM (HOP-62): 99% | activity at 10 µM (NCI-H322M): 109% | activity at 10 µM (NCI-H460): 120% | activity at 10 µM (NCI-H522): 99.7% | activity at 10 µM (COLO 205): 111% | activity at 10 µM (HCT-116): 116% | activity at 10 µM (HCT-15): 103% | activity at 10 µM (HT29): 108% | activity at 10 µM (KM12): 108% | activity at 10 µM (SW-620): 121% | activity at 10 µM (SF-268): 122% | activity at 10 µM (SF-295): 103% | activity at 10 µM (SF-539): 116% | activity at 10 µM (SNB-19): 102% | activity at 10 µM (SNB-75): 119% | activity at 10 µM (U251): 95.9% | activity at 10 µM (LOX IMVI): 95.3% | activity at 10 µM (MALME-3M): 147% | activity at 10 µM (M14): 105% | activity at 10 µM (SK-MEL-2): 106% | activity at 10 µM (SK-MEL-28): 134% | activity at 10 µM (SK-MEL-5): 89.2% | activity at 10 µM (UACC-257): 95.8% | activity at 10 µM (IGROV1): 145% | activity at 10 µM (OVCAR-3): 127% | activity at 10 µM (OVCAR-8): 103% | activity at 10 µM (786–0): 97.5% | activity at 10 µM (A498): 137% | activity at 10 µM (ACHN): 105% | activity at 10 µM (RXF 393): 98% | activity at 10 µM (SN12C): 100% | activity at 10 µM (TK-10): 97.5% | activity at 10 µM (DU-145): 119% | activity at 10 µM (MCF7): 89.9% | activity at 10 µM (HS 578T): 98% | antiproliferative effect (in words) [1]: a notable antiproliferative effect was not shown | antiproliferative effect (in words) ([1]; listed as vindoline): does not show any anticancer effect | activity at 10 µM ([1]; Homo sapiens, read-out: Growth percent rate, Mean): 107%

From article PMC11277489, “Novel Piperazine Derivatives of Vindoline as Anticancer Agents” (International Journal of Molecular Sciences, 2024)
